From patent publication US20260294922A1, “Inhibitors of JUN N-Terminal Kinases (JNK1, JNK2, and/or JNK3) and Mitogen-Activated Protein Kinases (MAPK8, MAPK9, and/or MAPK10) and Methods of Using Same” (Baylor College of Medicine, priority 2023, published 2026)
In brackets after ≈: the same amount, converted by molar mass.

What was measured:
[1] = In vitro metabolism in mouse liver microsomes; conditions: for half-life: mouse, microsomes
Procedure: (§1) The target product profile seeks to deliver JNK inhibitor as a once daily oral administration. To prioritize compounds for further development, in vitro metabolism of several CDD JNK inhibitors were determined to approximate the plasma half-life and the rate of metabolism of the compounds in vivo.

[2] = In vitro metabolism in human liver microsomes; conditions: for half-life: human, microsomes
Procedure: as §1

[3] = molecular target: T1, JNK2 (Homo sapiens, UniProt P45984); assay: Promega NanoBRET intracellular target engagement (tracer K10 displacement), JNK2; type: cell-based
[4] = molecular target: T2, JNK1 (Homo sapiens, UniProt P45983); assay: Promega NanoBRET intracellular target engagement (tracer K10 displacement), JNK1; type: cell-based
[5] = molecular target: T2, JNK1; assay: JNK1 kinase (intrinsic ATPase, Kinase-Glo) assay; type: biochemical; conditions: for Ki: Table 3b, read-out: Ki(app) JNK1
Procedure: JNK1, JNK2, and JNK3 hydrolyze ATP to ADP without any peptide substrates. This allows a very robust and fast endpoint assay where the remaining concentration of ATP is measured (BMG ClarioStar Plus plate reader) using the Kinase-Glo Assay kit from Promega (V6711). A luminescence signal is measured, which is produced by the catalytic conversion of beetle luciferin to oxyluciferin by luciferase. Potential inhibition of luciferase (i.e., false negatives) is easily detected, because assays without kinase are always included, and less ATP than is present in this control reaction could also indicate an inhibition of luciferase, which can be excluded by a counter screen with only luciferase.
To mitigate violation of the linear initial velocity principle, which is a problem in end-point assays when doing dose-responses, the enzyme concentration was carefully optimized, in a total assay volume of 25 μL. […] The kinase reaction was done for 30 or 60 min at 30° C., and detection of leftover ATP was measured according to Promega's protocol. […] Fractional activities were obtained from normalized data. Non-linear regression (GraphPad Prism7) and a modified Morrison equation for tight binding was used to determine apparent Ki values for inhibitors, assuming no particular mode of inhibition. An orthogonal binding assay (LanthaScreen) was outsourced to ThermoFisher Scientific's SelectScreen Services to determine IC50 values.

[6] = Solubility
[7] = molecular target: JNK3 (Homo sapiens, UniProt P53779); assay: JNK3 kinase (intrinsic ATPase, Kinase-Glo) assay; type: biochemical; conditions: for Kd: Table 3a, read-out: Kd JNK3
[8] = molecular target: T1, JNK2; assay: JNK2 kinase (intrinsic ATPase, Kinase-Glo) assay; type: biochemical; conditions: for Kd: Table 3a, read-out: Kd JNK2

T2 sequence (P45983 whole entry): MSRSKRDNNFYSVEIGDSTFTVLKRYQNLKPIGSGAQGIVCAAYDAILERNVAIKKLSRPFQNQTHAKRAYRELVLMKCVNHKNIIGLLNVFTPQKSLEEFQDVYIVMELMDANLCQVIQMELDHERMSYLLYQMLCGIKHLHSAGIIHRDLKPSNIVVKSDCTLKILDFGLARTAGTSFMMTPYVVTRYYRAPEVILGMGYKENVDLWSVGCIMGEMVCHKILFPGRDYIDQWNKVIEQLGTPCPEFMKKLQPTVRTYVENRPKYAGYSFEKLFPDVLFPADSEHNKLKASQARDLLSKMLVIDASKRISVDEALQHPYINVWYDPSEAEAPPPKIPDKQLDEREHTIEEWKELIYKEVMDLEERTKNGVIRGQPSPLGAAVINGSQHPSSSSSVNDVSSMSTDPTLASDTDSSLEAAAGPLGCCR
T1 sequence (P45984 whole entry): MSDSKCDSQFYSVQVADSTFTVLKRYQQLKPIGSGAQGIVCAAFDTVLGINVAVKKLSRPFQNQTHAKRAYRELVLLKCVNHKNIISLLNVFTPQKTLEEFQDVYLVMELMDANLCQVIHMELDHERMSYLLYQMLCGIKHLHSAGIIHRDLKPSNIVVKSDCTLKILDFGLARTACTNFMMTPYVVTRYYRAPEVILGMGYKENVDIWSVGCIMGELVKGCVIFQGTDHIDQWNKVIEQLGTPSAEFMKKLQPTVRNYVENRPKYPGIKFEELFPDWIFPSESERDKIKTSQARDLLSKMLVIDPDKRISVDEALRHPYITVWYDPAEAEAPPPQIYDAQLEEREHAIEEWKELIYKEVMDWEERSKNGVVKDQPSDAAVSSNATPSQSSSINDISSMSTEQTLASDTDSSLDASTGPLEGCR
Sequence of JNK3 (P53779 whole entry): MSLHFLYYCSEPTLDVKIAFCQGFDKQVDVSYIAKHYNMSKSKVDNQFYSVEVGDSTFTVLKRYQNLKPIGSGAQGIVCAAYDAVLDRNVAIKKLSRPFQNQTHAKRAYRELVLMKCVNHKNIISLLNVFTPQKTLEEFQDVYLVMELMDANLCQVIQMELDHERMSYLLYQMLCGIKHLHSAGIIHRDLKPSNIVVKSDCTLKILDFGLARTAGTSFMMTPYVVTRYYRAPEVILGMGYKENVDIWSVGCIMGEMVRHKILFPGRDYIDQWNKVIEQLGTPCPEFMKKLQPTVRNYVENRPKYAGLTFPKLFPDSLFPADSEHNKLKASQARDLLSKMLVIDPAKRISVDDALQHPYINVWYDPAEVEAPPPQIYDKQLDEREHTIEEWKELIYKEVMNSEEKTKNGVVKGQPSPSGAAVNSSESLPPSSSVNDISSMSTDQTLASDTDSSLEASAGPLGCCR

Compound	Predicted half-life, MLM t1/2 [1] [h]	Predicted half-life, HLM t1/2 [2] [h]	IC50 [3] [nM]	IC50 [4] [nM]	Ki [5] [nM]	solubility [6] [µM]	Kd [7] [nM]	half-life [1] [h]	half-life [2] [h]	Kd [5] [nM]	Kd [8] [nM]	Ki [7] [nM]	Ki [8] [nM]
Cc1nnc2n1-c1ccc(Cl)cc1C(c1ccccc1)=NC2 [Alprazolam, reference compound]	3.975	12.63											
CNC(=O)CN1[C@H](CC(=O)NCCCN(C)c2ccc(F)cc2)CNC[C@H]1C [CDD-2272, N-(3-((4-fluorophenyl)(methyl)amino)propyl)-2-((2R,6R)-6-methyl-1-(2-(methylamino)-2-oxoethyl)piperazin-2-yl)acetamide]			58000	60000	860								
CNC(=O)c1ccc(NC(=O)c2ccn3ncc(-c4cnc5[nH]ccc5c4)c3c2)cc1 [CDD-2461, N-(4-(methylcarbamoyl)phenyl)-3-(1H-pyrrolo[2,3-b]pyridin-5-yl)pyrazolo[1,5-a]pyridine-5-carboxamide]			5300	49500		1.8 (≈ 0.739 µg/mL)	0.33 ± 0.03	0.513	1.19	0.2 ± 0.18	0.32 ± 0.12		
O=C(Nc1ccc(C(F)(F)F)cc1)c1ccn2ncc(-c3cnc4[nH]ccc4c3)c2c1 [CDD-2483, 3-(1H-pyrrolo[2,3-b]pyridin-5-yl)-N-(4-(trifluoromethyl)phenyl)pyrazolo[1,5-a]pyridine-5-carboxamide]						0.6 (≈ 0.253 µg/mL)						167	339
O=C(Nc1ccccc1)c1ccn2ncc(-c3cnc4[nH]ccc4c3)c2c1 [CDD-2485, N-phenyl-3-(1H-pyrrolo[2,3-b]pyridin-5-yl)pyrazolo[1,5-a]pyridine-5-carboxamide]							0.73 ± 0.02			0.12 ± 0.09	0.95 ± 0.16		
COc1ccc(NC(=O)c2cc3c(-c4cnc5[nH]ccc5c4)cccc3s2)cc1 [CDD-2629, N-(4-methoxyphenyl)-4-(1H-pyrrolo[2,3-b]pyridin-5-yl)benzo[b]thiophene-2-carboxamide]							9.9 ± 1.3			7.8 ± 1.4	15.4 ± 1.4		
O=C(Nc1ccccc1)c1cc2c(-c3cnc4[nH]ccc4c3)cccc2s1 [CDD-2631, N-phenyl-4-(1H-pyrrolo[2,3-b]pyridin-5-yl)benzo[b]thiophene-2-carboxamide]							12.7 ± 1.2			5.9 ± 1.1	27.8 ± 3.6		
CN(C)C(=O)c1cccc(NC(=O)c2cc3c(-c4cnc5[nH]ccc5c4)cccc3s2)c1 [CDD-2632, N-(3-(dimethylcarbamoyl)phenyl)-4-(1H-pyrrolo[2,3-b]pyridin-5-yl)benzo[b]thiophene-2-carboxamide]						0.6 (≈ 0.264 µg/mL)	5.82 ± 0.92			4.91 ± 0.9	3.5 ± 1.4		
CN(C)C(=O)c1cc(NC(=O)c2cc3c(-c4cnc5[nH]ccc5c4)cccc3s2)ccc1F [CDD-2730, N-(3-(dimethylcarbamoyl)-4-fluorophenyl)-4-(1H-pyrrolo[2,3-b]pyridin-5-yl)benzo[b]thiophene-2-carboxamide]						0.3 (≈ 0.138 µg/mL)	1.86 ± 0.18			0.58 ± 0.08	5.33 ± 0.52		
CN(C)C(=O)c1cc(NC(=O)c2cc3c(-c4cnc5[nH]ccc5c4)cccc3s2)ccc1C(F)(F)F [CDD-2732, N-(3-(dimethylcarbamoyl)-4-(trifluoromethyl)phenyl)-4-(1H-pyrrolo[2,3-b]pyridin-5-yl)benzo[b]thiophene-2-carboxamide]							24.3 ± 1.9			14.3 ± 1.6	67 ± 11		
CN(C)C(=O)c1cc(NC(=O)c2cc3c(-c4cnc5[nH]ccc5c4)cccc3s2)ccc1OC(F)(F)F [CDD-2857, N-(3-(dimethylcarbamoyl)-4-(trifluoromethoxy)phenyl)-4-(1H-pyrrolo[2,3-b]pyridin-5-yl)benzo[b]thiophene-2-carboxamide]							15.7 ± 1.2	1.42	2.88	11.3 ± 3.4	49.8 ± 9.7		
CN(C)C(=O)c1cc(NC(=O)c2ccc3ncc(-c4cnc5[nH]ccc5c4)n3c2)ccc1O [CDD-3016]						9.7 (≈ 4.27 µg/mL)	1.48 ± 0.14	5.3	4.88	0.65 ± 0.15	5.77 ± 0.8		
CN(C)CCNC(=O)c1cc2c(-c3cnc4[nH]ccc4c3)cccc2s1 [CDD-3085, N-(2-(dimethylamino)ethyl)-4-(1H-pyrrolo[2,3-b]pyridin-5-yl)benzo[b]thiophene-2-carboxamide]						170 (≈ 62 µg/mL)	30.3 ± 2.7	1.17	7.5	13.1 ± 1.2	42.8 ± 8.3		
CN(C)CCNC(=O)c1cc(NC(=O)c2cc3c(-c4cnc5[nH]ccc5c4)cccc3s2)ccc1O [CDD-3086, N-(3-((2-(dimethylamino)ethyl)carbamoyl)-4-hydroxyphenyl)-4-(1H-pyrrolo[2,3-b]pyridin-5-yl)benzo[b]thiophene-2-carboxamide]						2 (≈ 0.999 µg/mL)	5.21 ± 0.46	1.5	1.68	0.67 ± 0.14	5.98 ± 0.42		
CNC(=O)c1cc(NC(=O)c2cc3c(-c4cnc5[nH]ccc5c4)cccc3s2)ccc1O [CDD-3087, N-(4-hydroxy-3-(methylcarbamoyl)phenyl)-4-(1H-pyrrolo[2,3-b]pyridin-5-yl)benzo[b]thiophene-2-carboxamide]						0.4 (≈ 0.177 µg/mL)	4.54 ± 0.5	1.28	1.97	1.96 ± 0.53	11.4 ± 0.81		
CN(C)C(=O)c1cc(NC(=O)c2cc3c(-c4cnc5[nH]ccc5c4)cncc3s2)ccc1O [CDD-3111, N-(3-(dimethylcarbamoyl)-4-hydroxyphenyl)-4-(1H-pyrrolo[2,3-b]pyridin-5-yl)thieno[2,3-c]pyridine-2-carboxamide]						3.8 (≈ 1.74 µg/mL)	0.32 ± 0.04	2.07	2.22	0.07 ± 0.05	0.73 ± 0.1		
O=C(Nc1ccc(O)c(C(=O)NC2COC2)c1)c1cc2c(-c3cnc4[nH]ccc4c3)cccc2s1 [CDD-3112, N-(4-hydroxy-3-(oxetan-3-ylcarbamoyl)phenyl)-4-(1H-pyrrolo[2,3-b]pyridin-5-yl)benzo[b]thiophene-2-carboxamide]						1.6 (≈ 0.775 µg/mL)	6.4 ± 0.6	2.83	1.65	2.84 ± 0.49	13.5 ± 0.8		
O=C(Nc1ccc(O)c(C(=O)NCC2CC2)c1)c1cc2c(-c3cnc4[nH]ccc4c3)cccc2s1 [CDD-3113, N-(3-((cyclopropylmethyl)carbamoyl)-4-hydroxyphenyl)-4-(1H-pyrrolo[2,3-b]pyridin-5-yl)benzo[b]thiophene-2-carboxamide]							10.9 ± 0.7	3.15	4.8	10.4 ± 1.4	40.7 ± 5.5		
O=C(Nc1ccc2c(c1)C(=O)NC2)c1cc2c(-c3cnc4[nH]ccc4c3)cccc2s1 [CDD-3115, N-(3-oxoisoindolin-5-yl)-4-(1H-pyrrolo[2,3-b]pyridin-5-yl)benzo[b]thiophene-2-carboxamide]						1.4 (≈ 0.594 µg/mL)	4.6 ± 0.7	1.43	14.8	1.5 ± 0.2	6.3 ± 0.6		
O=C(c1cc2c(-c3cnc4[nH]ccc4c3)cccc2s1)N1CCN(c2ccccc2)C(=O)C1 [CDD-3116, 4-(4-(1H-pyrrolo[2,3-b]pyridin-5-yl)benzo[b]thiophene-2-carbonyl)-1-phenylpiperazin-2-one]						4.2 (≈ 1.9 µg/mL)	114 ± 7	0.567	0.8	54.5 ± 5.4	447 ± 65		
CCN(CC)Cc1cc(NC(=O)c2cc3c(-c4cnc5[nH]ccc5c4)cccc3s2)ccc1O [CDD-3117, N-(3-((diethylamino)methyl)-4-hydroxyphenyl)-4-(1H-pyrrolo[2,3-b]pyridin-5-yl)benzo[b]thiophene-2-carboxamide]						3.4 (≈ 1.6 µg/mL)	2.9 ± 0.4	1.9	0.517	0.9 ± 0.2	2.1 ± 0.3		
N#Cc1cc(NC(=O)c2cc3c(-c4cnc5[nH]ccc5c4)cccc3s2)ccc1O [CDD-3126, N-(3-cyano-4-hydroxyphenyl)-4-(1H-pyrrolo[2,3-b]pyridin-5-yl)benzo[b]thiophene-2-carboxamide]					30	> 200		2.4	5.4				
Cc1sc2c(c1C)C(c1ccc(Cl)cc1)=N[C@@H](CC(=O)OC(C)(C)C)c1nnc(C)n1-2 [JQ1, reference compound]	0.193	0.275											
